Assay [1] has as its target T1, E. cloacae P99 β-lactamase (Enterobacter cloacae, UniProt P05364).
T1 construct: The β-lactamases are isolated from bacterial strains resistant to penicillins and cephalosporins; endogenous in cells; host or cells: E. cloacae 293HT6 (soluble fraction of French-press lysate)
Put plainly: β-lactamase inhibiting activity on isolated enzyme (Nitrocefin hydrolysis), P99. Type of assay: biochemical. To be noted: 5 min pre-incubation, 100 μM Nitrocefin, pH 7.0, 37° C., mean of at least 2 experiments, read-out: IC50 enzyme inhibition. As to the method:
(§1) A. Preparation of Tem-1 and P99 β-lactamases
(§2) The β-lactamases are isolated from bacterial strains resistant to penicillins and cephalosporins (Tem 1 and P99 are respectively produced by E. coli 250HT21 and E.Cloacae 293 HT6).
(§3) The bacteria are cultured in 37g/l brain-heart infusion (DIFCO), at 37° C. They are harvested at the end of the exponential phase, cooled and centrifuged. The bacterial residues are dissolved in 50 mM sodium phosphate buffer pH 7.0 and again centrifuged. The bacteria are dissolved in two volumes of this same buffer and lysed using a French-Press held at 4° C. After centrifuging 1 h at 100 000g, at 4° C., the supernatants containing the soluble fraction of the bacterial extracts are collected and frozen to −80° C.
(§4) B. Determination β-lactamase Activity
(§5) The method uses Nitrocefin (OXOID) as substrate, a chromogenic cephalosporin, whose hydrolysis product by β-lactamases is red and absorbed at 485 nm.
(§6) β-lactamase activity is determined kinetically by measuring the variation in absorbance at 485 nm resulting from hydrolysis of the substrate on a plate spectrophotometer (Spectra Max Plus by Molecular Devices). Experiments are conducted at 37° C. The quantity of enzyme was normalized and measurements are taken at initial velocity.
(§7) C. Determination of β-Lactamase Inhibiting Activity
(§8) The measurements are taken with pre-incubation of the enzyme and of the inhibitor (5 min). The products are assayed at 11 concentrations. The reaction mixture contains 100 μM Nitrocefin and 50 mM sodium phosphate buffer, pH 7.0, and 0.1 mg/mL bovine serum albumin.
(§9) Hydrolysis velocities are measured with and without inhibitor. The inhibitor concentration is determined which inhibits 50% of the Nitrocefin hydrolysis reaction by the enzyme (IC50). Data is processed using GraFit software (Erithacus Software). The IC50 values are the mean of the IC50s obtained in at least 2 different experiments.

Assay [2] relates to E. cloacae 293HT4 (AmpC). Put plainly: MIC of ceftazidime alone or with inhibitor, micro-dilution in liquid medium, strain 293HT4. Particulars: 24 h; for MIC of CAZ in combination with inhibitor (CAZ-Inhibitor): inhibitor at constant 4 μg/mL. Type of assay: cell-based. Here is the method:
(§10) II/ The evidenced β-lactamase inhibiting activity potentialises the antibacterial activity of antibiotics of β-lactam type, and therefore leads to a synergic effect, as is shown by the results given below which express the minimum inhibitory concentration in vitro (MIC in μg/ml), against a certain number of pathogenic microorganisms, and of combinations of ceftazidime (<<CAZ >>) with formula (I) compounds at a concentration of 4 mg/l. Operations are as follows using the so-called micro-dilution method in liquid medium.
(§11) A series of β-lactam concentrations are prepared in the presence of a constant concentration (4 mg/l) of the product to be assayed, each is then seeded with various bacterial strains.
(§12) After 24-hour incubation in an oven at 37° C. growth inhibition is assessed via the lack of any bacterial growth, which allows determination of the minimum inhibitory concentrations (MICs) for each strain, expressed in milligrams/l.

Assay [3] has as its target T2, E. coli TEM1 β-lactamase (Escherichia coli, UniProt P62593).
T2 construct: The β-lactamases are isolated from bacterial strains resistant to penicillins and cephalosporins; endogenous in cells; host or cells: E. coli 250HT21 (soluble fraction of French-press lysate)
Put plainly: β-lactamase inhibiting activity on isolated enzyme (Nitrocefin hydrolysis), TEM1. The assay is classed as biochemical. Particulars: 5 min pre-incubation, 100 μM Nitrocefin, pH 7.0, 37° C., mean of at least 2 experiments, read-out: IC50 enzyme inhibition. As to the method: as §1, §2, §3, §4, §5, §6, §7, §8, §9

Assay [4] concerns E. cloacae 293HT6 (P99 AmpC). Put plainly: MIC of ceftazidime alone or with inhibitor, micro-dilution in liquid medium, strain 293HT6. The assay is classed as cell-based. To be noted: 24 h; for MIC of CAZ in combination with inhibitor (CAZ-Inhibitor): inhibitor at constant 4 μg/mL. As to the method:
as §10, §11, §12
(In general: Dilution methods test growth across graded concentrations, often in twofold steps.)

In assay [5] the test system is C. freundii 261GR6 (AmpC). Put plainly: MIC of ceftazidime alone or with inhibitor, micro-dilution in liquid medium, strain 261GR6. The assay is classed as cell-based. To be noted: 24 h; for MIC of CAZ in combination with inhibitor (CAZ-Inhibitor): inhibitor at constant 4 μg/mL. As to the method: as §10, §11, §12
The subject of assay [6] is E. coli 250BE6 (TEM3). Nature of the assay: MIC of ceftazidime alone or with inhibitor, micro-dilution in liquid medium, strain 250BE6. Type of assay: cell-based. To be noted: 24 h; for MIC of CAZ in combination with inhibitor (CAZ-Inhibitor): E. coli 250BE6 TEM3, inhibitor at constant 4 μg/mL. As to the method: as §10, §11, §12
Setting [7] is: Enterobacter cloacae, no inhibitor, read-out: MIC CAZ alone.

Each structure is given as a SMILES string. Where a name gives a salt, the structure may show the parent alone.

T1 sequence (P05364 21-381): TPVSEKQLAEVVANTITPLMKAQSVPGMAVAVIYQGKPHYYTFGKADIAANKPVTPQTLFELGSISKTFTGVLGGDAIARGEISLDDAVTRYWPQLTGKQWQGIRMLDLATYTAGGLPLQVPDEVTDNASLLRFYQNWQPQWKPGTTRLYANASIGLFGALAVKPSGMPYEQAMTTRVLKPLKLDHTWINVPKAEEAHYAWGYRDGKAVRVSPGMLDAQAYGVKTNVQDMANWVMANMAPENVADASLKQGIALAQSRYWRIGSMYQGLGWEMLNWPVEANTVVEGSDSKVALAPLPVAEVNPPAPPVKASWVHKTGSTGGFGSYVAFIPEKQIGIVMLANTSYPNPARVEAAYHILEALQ
T2 sequence (P62593 24-286 limits assumed): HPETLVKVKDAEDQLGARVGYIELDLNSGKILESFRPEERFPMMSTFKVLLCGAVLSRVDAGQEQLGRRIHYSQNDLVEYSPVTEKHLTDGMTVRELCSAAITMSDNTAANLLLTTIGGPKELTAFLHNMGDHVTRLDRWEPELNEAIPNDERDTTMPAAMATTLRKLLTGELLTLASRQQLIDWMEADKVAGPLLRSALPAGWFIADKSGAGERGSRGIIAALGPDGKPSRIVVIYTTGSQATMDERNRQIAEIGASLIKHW

As to `NC(=O)[C@@H]1CC[C@@H]2CN1C(=O)N2OC(F)(F)C(=O)O` [Example 3, Sodium salt of trans-(1R,2S,5R)-6-(1,1-difluoro-2-hydroxy-2-oxoethoxy)-7-oxo-1,6-diazabicyclo[3.2.1]octane-2-carboxamide], the half-maximal inhibitory concentration (IC50) – broadly, the concentration needed to halve the response being measured – is 2200 nM in assay [1] and 0.8 nM in assay [3]. Moreover, the “MIC of CAZ in combination with inhibitor (CAZ-Inhibitor)” value (shortened to “MIC of CAZ … (CAZ-Inhibitor)”) was 0.5 µg/mL in assay [2], 1 µg/mL in assay [4], 1 µg/mL in assay [5] and 0.25 µg/mL in assay [6].
`NC(=O)[C@@H]1CC[C@@H]2CN1C(=O)N2OC(F)C(=O)O` (mixture of isomers) [Example 2, trans-(1R,2S,5R)-6-(1-fluoro-2-hydroxy-2-oxoethoxy)-7-oxo-1,6-diazabicyclo[3.2.1]octane-2-carboxamide]: the IC50 in assay [1] worked out at 4600 nM; in assay [3], 2 nM. Also, the “MIC of CAZ … (CAZ-Inhibitor)” value was 8 µg/mL in assay [2], 8 µg/mL in assay [4], 4 µg/mL in assay [5] and 0.25 µg/mL in assay [6].
As to `NC(=O)[C@@H]1CC[C@@H]2CN1C(=O)N2OCC(=O)O` [Example 1, trans-(1R,2S,5R)-6-(2-hydroxy-2-oxoethoxy)-7-oxo-1,6-diazabicyclo[3.2.1]octane-2-carboxamide, reference compound], the IC50 was determined as 54000 nM in assay [1] and 720 nM in assay [3]. In addition, the “MIC of CAZ … (CAZ-Inhibitor)” value in assay [2] is more than 32 µg/mL; in assay [4], more than 32 µg/mL; in assay [5], more than 32 µg/mL; in assay [6], 2 µg/mL.
`CC(C)(O/N=C(\C(=O)N[C@@H]1C(=O)N2C(C(=O)[O-])=C(C[n+]3ccccc3)CS[C@H]12)c1csc(N)n1)C(=O)O` [CAZ, ceftazidime, reference compound]: the MIC (usually the least concentration at which growth counts as inhibited) in assay [2] (setting [7]) is more than 32 µg/mL; in assay [4] (setting [7]), more than 32 µg/mL; in assay [5] (Citrobacter freundii, no inhibitor, read-out: MIC CAZ alone), more than 32 µg/mL; in assay [6] (Escherichia coli, read-out: MIC CAZ alone) it was more than 32 µg/mL.

The values above are taken from patent publication US20110046102A1, “AZABICYCLIC COMPOUNDS, PREPARATION THEREOF AND USE OF SAME AS DRUGS, ESPECIALLY BETA-LACTAMASE INHIBITORS” (Novexel, priority 2008, published 2011).
